One series concerns the target T1, IRAK4 (Homo sapiens, UniProt Q9NWZ3).
T1 sequence (Q9NWZ3 1-460): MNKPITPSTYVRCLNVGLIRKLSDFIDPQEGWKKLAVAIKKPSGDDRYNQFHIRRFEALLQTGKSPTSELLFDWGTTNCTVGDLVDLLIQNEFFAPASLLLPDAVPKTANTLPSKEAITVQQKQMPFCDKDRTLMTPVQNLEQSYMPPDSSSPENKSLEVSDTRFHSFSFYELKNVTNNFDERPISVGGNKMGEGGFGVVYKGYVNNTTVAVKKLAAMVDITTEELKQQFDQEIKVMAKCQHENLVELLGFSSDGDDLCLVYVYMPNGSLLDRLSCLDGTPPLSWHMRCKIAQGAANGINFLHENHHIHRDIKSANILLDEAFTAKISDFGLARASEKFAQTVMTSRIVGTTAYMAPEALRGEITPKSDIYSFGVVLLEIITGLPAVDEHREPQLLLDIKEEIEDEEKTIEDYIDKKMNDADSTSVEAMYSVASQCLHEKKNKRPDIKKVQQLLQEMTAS
Description: IRAK-4 activity inhibition assay (Caliper). To be noted: 37 μM ATP, 3.5 nM IRAK4. Format: biochemical.

Another series relates to THP-1 cells. Description: LPS induced cytokine (TNFα and IL8) production assay in THP-1 cells. Format: cell-based. To be noted: Homo sapiens, 300 ng/mL LPS. The method in brief:
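THP-1 cells (100,000/well) pre-incubated 1 hour with compound in 0.3% DMSO, then stimulated with 300 ng/mL LPS. TNFα and IL8 in supernatant measured by HTRF at 5 hours; IL8 and viability also at 16 hours.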

A further series has as its system Whole Blood. Description: In vitro LPS/R848-induced cytokine production assay in whole blood. It counts as cell-based, human. As to the method:
(§1) In Vitro LPS/R848/CpG-Induced Cytokine Production Assays in hPBMC or Whole Blood
(§2) Compounds of the present invention were also studied in in vitro LPS/R848/CpG-induced cytokine production assays. Exemplary protocols follow.
(§3) […] Cells were seeded in a 96-well plate with 130 ul/well of the cell suspension according to the plate map. 9 ul of 30 mM compound solution was added into the wells in the assigned rows, then serial solutions with 4× dilutions were made. That is, add 9 uL of 100% DMSO into each of the rest wells and take 3 uL of compound solution from the one-step higher concentration solution and mix well with the DMSO. For the second compound master plate, 196 uL of the growth medium (no serum media) were added into each of the wells and 4 uL of the compound solution from the first compound master plate was added and mixed with the media. Cells were treated for 0.5 h by adding 20 uL of the compound and the control solutions prepared in the second master plate to each well according to the plate map. […] Plates were sealed with sealing films and the plates were centrifuged at 3000 rpm at 4 degrees C. for 5 min. The supernatants were transferred, and 100 ul of working Capture antibody solution was added to each well. The plates were sealed and incubated overnight at RT. IL-6, IFN-α or TNF-α detection antibody labeled with biotin: Added 100 uL of the Detection Antibody solution to each well. Covered the plate and incubated for 2 h at RT. Added 100 uL of Streptavidin-HRP solution to each well. Covered the plate and incubate for 20 min at RT in dark. Added 100 uL of Substrate Solution to each well. Incubated for 20 min at RT in dark. Added 50 uL of Stop Solution to each well. Gently tapped the plate to ensure thorough mixing. Determined the optical density of each well immediately, using a microplate reader set to 450 nm and also read at 540 nm or 570 nm for correction if wavelength correction is not available.

Another series has as its system hPBMC. Put plainly: In vitro LPS/R848/CpG/IL-1β-induced cytokine production assay in hPBMC. Conditions: Homo sapiens. Format: cell-based. As to the method: as §1, §2, §3
The subject of a further series is ABC DLBCL Cells. Description: sensitization of ABC DLBCL cells to IRAK inhibitors by BTK knockdown. Format: cell-based. Conditions: BTK knockdown (FIG. 9). An excerpt: FIG. 8 depicts the sensitization of ABC DLBCL Cells to IRAK Inhibitors by BTK knockdown.
The next series relates to GCB DLBCL Cells. Put plainly: sensitization of GCB DLBCL cells by BTK knockdown. Format: cell-based. To be noted: BTK knockdown (FIG. 10).
Series [1] concerns collagen-induced arthritis. Description: In vivo murine collagen-induced arthritis model. Conditions: DBA mice, intraperitoneally 30 mg/kg twice a day, vs vehicle. As to the method: In Vivo Murine Collagen-Induced Arthritis Model Compounds of the present invention were also evaluated in mice in an in vivo efficacy model for inhibiting IRAK4-mediated arthritis. An exemplary protocol for this assay follows. Male DBA mice were immunized with collagen on day 0 and day 21 and randomly enrolled into groups upon onset of disease. […] Eight mice were enrolled per group with the exception of the naïve control group, which contained four mice. Day 1 was designated as the first treatment day, and mice were evaluated daily for clinical scores until day 11. The mice were weighed on alternating days.

The test system of a further series is OCI-Ly10 cells. Put plainly: In vivo murine xenograft tumor model of human ABC DLBCL lymphoma. To be noted: NOD/SCID mice. As to the method: In Vivo Murine Tumor Model of Human ABC DLBCL Lymphoma
Compounds of the present invention were also evaluated in a xenograft tumor model of human ABC DLBCL lymphoma first described and disclosed in Staudt et al. (2012). The tumor was established by subcutaneous injection of OCI-Ly10 cells into immunodeficient (NOD/SCID) mice. […] Tumor growth was monitored by measuring tumor size in two orthogonal directions. The tumor volume was calculated by using the formula (1/2)(long dimension)×(short dimension)^2.
In general terms: In xenograft studies the graft and the host belong to different species.

The subject of the next series is ABC DLBCL cell lines. Put plainly: Cell viability assay, combination with ibrutinib. It counts as cell-based. As to the method: Compounds of the present invention were also evaluated in a cell viability assay.
Setting [2] is: Homo sapiens, LPS 0.1 ug/mL, read-out: IL-6 production IC50.
The mark [3] stands for this setting: Homo sapiens, LPS 0.1 ug/mL, read-out: TNF-α production IC50.
[4] abbreviates: LPS 0.01 ug/mL, read-out: IL-6 production IC50.
[5] abbreviates: LPS 0.01 ug/mL, read-out: TNF-α production IC50.
Where [6] appears, read: R848 1 uM, read-out: TNF-α production IC50.

The record followed here is US20160193216A1 (Nimbus Iris, Inc., priority 2012, published 2016).

SMILES strings stand for the structures. Like-named read-outs stand apart in the source and are kept apart here. A value given as a limit tells only on which side of the number the result lay.

For `CN[C@H]1CC[C@H](Oc2ncnc3sc4c(c23)[C@@H](CC(N)=O)CC4)CC1` [Compound I-79, 2-[(3R)-12-[[4-(methylamino)cyclohexyl]oxy]-7-thia-9,11-diazatricyclo[6.4.0.0̂[2,6]]dodeca-1(8),2(6),9,11-tetraen-3-yl]acetamide], the IC50 on IRAK4 is below 5000 nM; in the series on THP-1 cells (read-out: IL8 production IC50), 500 to 1000 nM; with THP-1 cells (read-out: TNFα production IC50), 1000 to 5000 nM; in the series with Whole Blood (setting [2]), at least 1000 nM; in the series with Whole Blood (setting [3]) it was at least 1000 nM; in the series with hPBMC (setting [4]) it was at least 1000 nM. In addition, the concentration for half-maximal inhibition (IC50) in the series on hPBMC (setting [5]) is at least 1000 nM.
Regarding `NC(=O)[C@@H](O)C[C@H]1CCc2sc3ncnc(O[C@H]4CC[C@H](N5CCOCC5)CC4)c3c21` [Compound I-92, (S)-2-hydroxy-3-((R)-4-(((1r,4R)-4-morpholinocyclohexyl)oxy)-6,7-dihydro-5H-cyclopenta[4,5]thieno[2,3-d]pyrimidin-5-yl)propanamide], the “sensitization of ABC DLBCL Cells to compound by BTK knockdown” value in the series with ABC DLBCL Cells was “sensitization”. In the series with GCB DLBCL Cells, the “sensitization of GCB DLBCL Cells to compound by BTK Knockdown” value is “lack of sensitization”. Besides, the concentration for half-maximal inhibition (IC50) in the series with THP-1 cells (read-out: IL8 production IC50) was at most 500 nM; in the series on THP-1 cells (read-out: TNFα production IC50), at most 500 nM; in the series with Whole Blood (setting [2]) it was at most 250 nM; with Whole Blood (setting [3]), 500 to 1000 nM; with Whole Blood (Homo sapiens, R848 1 uM, read-out: IFN-α production IC50), 500 to 1000 nM; in the series with Whole Blood (setting [6]), 500 to 1000 nM. For the same molecule, the IC50 is 250 to 500 nM in the series on hPBMC (CpG 0.1 uM, read-out: IFN-α production IC50); at most 250 nM in the series on hPBMC (CpG 0.5 uM, read-out: TNF-α production IC50); at most 250 nM in the series with hPBMC (IL-1β 1 ng/mL, read-out: IL-6 production IC50); at most 250 nM in the series with hPBMC (setting [4]); at most 250 nM in the series with hPBMC (setting [5]); at most 250 nM in the series with hPBMC (setting [6]). Besides, the “Clinical scores, collagen-induced arthritis” value in [1] was “efficacious compared to the vehicle”. For the same molecule, the “ABC lymphoma growth (tumor volume)” value in the series on OCI-Ly10 cells is “reduces ABC lymphoma growth”. Besides, in the series on OCI-Ly10 cells, the “Tolerability in the animals” value is “well tolerated”. For the same molecule, the “Killing of ABC DLBCL cells in combination with ibrutinib” value in the series with ABC DLBCL cell lines is given as “Synergistic killing”.

By IC50 is commonly meant the point on the concentration scale where inhibition reaches its midpoint.
